According to patent US20260028365A1 (BIOGEN MA INC., priority 2022, published 2026):
Like-named read-outs stand apart in the source and are kept apart here.

Key:
Tyk2 = Tyk2 (Homo sapiens (Human), UniProt P29597); assay: pSTAT4 Cell Assay (MSD, NK92 cells); format: cell-based
JH2 domain of human Tyk2 = JH2 domain of human Tyk2 (Homo sapiens (Human), UniProt P29597); assay: JH2 Biochemical Assay (TR-FRET probe displacement); format: binding
[1] = TR-FRET probe displacement, JH2 domain
[2] = TR-FRET probe displacement, JH2 domain of human Tyk2
[3] = JH2 domain of human Tyk2, TR-FRET probe displacement

Sequence of Tyk2 (P29597 whole entry, the tested form may be a part): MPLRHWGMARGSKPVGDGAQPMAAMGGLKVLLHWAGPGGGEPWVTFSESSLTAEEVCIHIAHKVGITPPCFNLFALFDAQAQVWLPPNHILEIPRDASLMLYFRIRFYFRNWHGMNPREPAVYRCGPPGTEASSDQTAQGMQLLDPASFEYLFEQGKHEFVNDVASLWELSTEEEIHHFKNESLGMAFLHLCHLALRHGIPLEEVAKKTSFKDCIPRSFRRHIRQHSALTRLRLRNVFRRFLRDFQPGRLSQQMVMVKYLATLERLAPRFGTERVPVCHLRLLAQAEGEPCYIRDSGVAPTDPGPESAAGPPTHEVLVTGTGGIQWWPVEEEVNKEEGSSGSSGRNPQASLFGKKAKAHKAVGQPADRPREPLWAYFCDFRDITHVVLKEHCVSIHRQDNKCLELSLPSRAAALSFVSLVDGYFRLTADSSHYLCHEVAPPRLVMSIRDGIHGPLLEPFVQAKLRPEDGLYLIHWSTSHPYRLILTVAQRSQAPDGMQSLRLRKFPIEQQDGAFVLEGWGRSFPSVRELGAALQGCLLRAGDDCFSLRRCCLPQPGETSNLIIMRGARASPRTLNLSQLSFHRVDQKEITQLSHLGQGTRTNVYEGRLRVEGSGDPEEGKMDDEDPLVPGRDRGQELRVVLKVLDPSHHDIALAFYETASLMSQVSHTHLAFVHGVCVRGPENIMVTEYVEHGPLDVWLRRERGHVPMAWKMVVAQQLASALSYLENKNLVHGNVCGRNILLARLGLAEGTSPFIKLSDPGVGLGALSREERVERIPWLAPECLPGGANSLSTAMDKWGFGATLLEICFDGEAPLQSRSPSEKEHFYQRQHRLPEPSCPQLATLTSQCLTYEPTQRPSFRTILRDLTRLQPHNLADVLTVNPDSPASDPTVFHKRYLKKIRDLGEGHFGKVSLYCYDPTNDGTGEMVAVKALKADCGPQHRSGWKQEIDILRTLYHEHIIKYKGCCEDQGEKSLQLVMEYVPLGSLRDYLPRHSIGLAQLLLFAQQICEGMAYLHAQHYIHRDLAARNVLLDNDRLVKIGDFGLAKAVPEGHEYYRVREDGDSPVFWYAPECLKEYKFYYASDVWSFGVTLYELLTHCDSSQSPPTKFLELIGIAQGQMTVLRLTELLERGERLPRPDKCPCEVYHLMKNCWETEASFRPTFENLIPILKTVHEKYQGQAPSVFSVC
Sequence of JH2 domain of human Tyk2 (P29597 575-876): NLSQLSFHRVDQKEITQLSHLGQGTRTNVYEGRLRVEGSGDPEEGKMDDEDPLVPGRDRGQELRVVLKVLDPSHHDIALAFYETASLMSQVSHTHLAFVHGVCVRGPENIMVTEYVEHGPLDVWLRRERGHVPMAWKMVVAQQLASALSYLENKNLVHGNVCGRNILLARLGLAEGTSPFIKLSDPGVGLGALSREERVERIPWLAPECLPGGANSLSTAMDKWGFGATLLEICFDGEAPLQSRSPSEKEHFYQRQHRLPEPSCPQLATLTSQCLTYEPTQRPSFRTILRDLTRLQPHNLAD

Compound | IC50 (Tyk2) | IC50 (JH2 domain of human Tyk2; [1]) | IC50 (Tyk2; MSD) | IC50 (JH2 domain of human Tyk2; [2]) | IC50 (JH2 domain of human Tyk2; [3])
CC(=O)Nc1cc(Nc2ccnc(C(C)(F)F)n2)c(-c2ccc(N3C[C@@H]4C[C@H]3CO4)nn2)cn1 [Example 876, N-(5-(6-((1S,4S)-2-oxa-5-azabicyclo[2.2.1]heptan-5-yl)pyridazin-3-yl)-4-((2-(1,1-difluoroethyl)pyrimidin-4-yl)amino)pyridin-2-yl)acetamide] | ≤ 10 nM | ≤ 10 nM |  |  | 
CCc1cc(Nc2cc(NC(C)=O)ncc2-c2nc(C)no2)nc(C(C)(F)F)n1 [Example 281, N-(4-((2-(1,1-difluoroethyl)-6-ethylpyrimidin-4-yl)amino)-5-(3-methyl-1,2,4-oxadiazol-5-yl)pyridin-2-yl)acetamide] |  |  | 10 to 100 nM | ≤ 10 nM | 
COC(C)(C)COc1cnc(NC(C)=O)cc1Nc1cc(C)nc(C(C)(F)F)n1 [Example 492, N-(4-((2-(1,1-difluoroethyl)-6-methylpyrimidin-4-yl)amino)-5-(2-methoxy-2-methylpropoxy)pyridin-2-yl)acetamide] |  |  | 10 to 100 nM |  | ≤ 10 nM
COc1cnc(-c2cnc(NC(C)=O)cc2Nc2cc(OC3CC3)nc(C(C)(F)F)n2)cn1 [Example 830, N-(4-((6-cyclopropoxy-2-(1,1-difluoroethyl)pyrimidin-4-yl)amino)-5-(5-methoxypyrazin-2-yl)pyridin-2-yl)acetamide] | 10 to 100 nM | ≤ 10 nM |  |  | 
COc1nccc(-c2cnc(NC(C)=O)cc2Nc2ccnc(C(C)(F)F)n2)n1 [Example 178, N-(4-((2-(1,1-difluoroethyl)pyrimidin-4-yl)amino)-5-(2-methoxypyrimidin-4-yl)pyridin-2-yl)acetamide] |  |  | ≤ 10 nM | ≤ 10 nM | 
COCc1cnc(NC(C)=O)cc1Nc1cc(C)nc(C(C)(F)F)n1 [Example 47, N-(4-((2-(1,1-difluoroethyl)-6-methylpyrimidin-4-yl)amino)-5-(methoxymethyl)pyridin-2-yl)acetamide] |  |  | ≥ 1000 nM | 10 to 100 nM | 
CC(=O)Nc1cc(Nc2ccnc(C3CCOC3)n2)c(-c2ccn(C)n2)cn1 (centres unmarked) [Example 556, N-(5-(1-methyl-1H-pyrazol-3-yl)-4-((2-(tetrahydrofuran-3-yl)pyrimidin-4-yl)amino)pyridin-2-yl)acetamide] |  |  | 10 to 100 nM |  | ≤ 10 nM
CC(=O)Nc1cc(Nc2cc(C)nc(C(C)(F)F)n2)c(-n2cc(C)cn2)cn1 [Example 729, N-(4-((2-(1,1-difluoroethyl)-6-methylpyrimidin-4-yl)amino)-5-(4-methyl-1H-pyrazol-1-yl)pyridin-2-yl)acetamide] |  |  | ≤ 10 nM |  | ≤ 10 nM
COc1cnc(NC(C)=O)cc1Nc1cc(-c2cnn(CCN3CCOCC3)c2)nc(C(C)(F)F)n1 [Example 379, N-(4-((2-(1,1-difluoroethyl)-6-(1-(2-morpholinoethyl)-1H-pyrazol-4-yl)pyrimidin-4-yl)amino)-5-methoxypyridin-2-yl)acetamide] |  |  | 10 to 100 nM |  | ≤ 10 nM
CC(=O)Nc1cc(Nc2cccc(C3CCOC3)n2)c(-c2ccn(C)n2)cn1 (centres unmarked) [Example 208, N-(5-(1-methyl-1H-pyrazol-3-yl)-4-((6-(tetrahydrofuran-3-yl)pyridin-2-yl)amino)pyridin-2-yl)acetamide] |  |  | 10 to 100 nM | ≤ 10 nM | 
CCOc1cnc(NC(C)=O)cc1Nc1cc(-c2cncc(C)c2)nc(C(C)(F)F)n1 [Example 367, N-(4-((2-(1,1-difluoroethyl)-6-(5-methylpyridin-3-yl)pyrimidin-4-yl)amino)-5-ethoxypyridin-2-yl)acetamide] |  |  | 10 to 100 nM | ≤ 10 nM | 
CC(=O)Nc1cc(Nc2cc(C)nc(C(C)(F)F)n2)c(OCc2nc(C)c(C)o2)cn1 [Example 338, N-(4-((2-(1,1-difluoroethyl)-6-methylpyrimidin-4-yl)amino)-5-((4,5-dimethyloxazol-2-yl)methoxy)pyridin-2-yl)acetamide] |  |  | 10 to 100 nM | ≤ 10 nM | 
CC(=O)Nc1cc(Nc2cc(C)nc(C(C)(F)F)n2)c(-c2cn(C)c(C#N)n2)cn1 [Example 601, N-(5-(2-cyanO1-methyl-1H-imidazol-4-yl)-4-((2-(1,1-difluoroethyl)-6-methylpyrimidin-4-yl)amino)pyridin-2-yl)acetamide] |  |  | ≤ 10 nM |  | ≤ 10 nM
COc1cnc(NC(C)=O)cc1Nc1ccnc(C2CCOC2)n1 (centres unmarked) [Example 450, N-(5-methoxy-4-((2-(tetrahydrofuran-3-yl)pyrimidin-4-yl)amino)pyridin-2-yl)acetamide] |  |  | ≥ 1000 nM |  | 10 to 100 nM
COc1cc(COc2cnc(NC(C)=O)cc2Nc2cc(C)nc(C(C)(F)F)n2)ncn1 [Example 346, N-(4-((2-(1,1-difluoroethyl)-6-methylpyrimidin-4-yl)amino)-5-((6-methoxypyrimidin-4-yl)methoxy)pyridin-2-yl)acetamide] |  |  | 10 to 100 nM | ≤ 10 nM | 
CC(=O)Nc1cc(Nc2cc(C)nc(C(C)(F)F)n2)c(OCC2CC2(F)F)cn1 (centres unmarked) [Example 74, N-(5-((2,2-difluorocyclopropyl)methoxy)-4-((2-(1,1-difluoroethyl)-6-methylpyrimidin-4-yl)amino)pyridin-2-yl)acetamide] |  |  | 10 to 100 nM | ≤ 10 nM | 

Compound | IC50 (Tyk2) | IC50 (JH2 domain of human Tyk2; [1]) | IC50 (Tyk2; MSD) | IC50 (JH2 domain of human Tyk2; [2]) | IC50 (JH2 domain of human Tyk2; [3])
CCOc1cnc(NC(C)=O)cc1Nc1ccnc(C(C)(C)F)n1 [Example 31, N-(5-ethoxy-4-((2-(2-fluoropropan-2-yl)pyrimidin-4-yl)amino)pyridin-2-yl)acetamide] |  |  | 10 to 100 nM | ≤ 10 nM | 
CC(=O)Nc1cc(Nc2cc(C)nc(C(C)(F)F)n2)c(-c2ccc(S(C)(=O)=O)cn2)cn1 [Example 543, N-(4′-((2-(1,1-difluoroethyl)-6-methylpyrimidin-4-yl)amino)-5-(methylsulfonyl)-[2,3′-bipyridin]-6′-yl)acetamide] |  |  | ≤ 10 nM |  | ≤ 10 nM
CC(=O)Nc1cc(Nc2cc(C)nc(C(C)(F)F)n2)c(-c2ccc(C(F)F)cn2)cn1 [Example 827, N-(4′-((2-(1,1-difluoroethyl)-6-methylpyrimidin-4-yl)amino)-5-(difluoromethyl)-[2,3′-bipyridin]-6′-yl)acetamide] | ≤ 10 nM | ≤ 10 nM |  |  | 
CC(=O)Nc1cc(Nc2ccnc(C(C)(F)F)n2)c(-c2ccc(CN3CCOC[C@H]3C)cn2)cn1 [Example 880, (R)-N-(4′-((2-(1,1-difluoroethyl)pyrimidin-4-yl)amino)-5-((3-methylmorpholino)methyl)-[2,3′-bipyridin]-6′-yl)acetamide] | ≤ 10 nM | ≤ 10 nM |  |  | 
COc1cnc(-c2cnc(NC(C)=O)cc2Nc2cc(C)nc(C(C)(F)F)n2)nc1 [Example 656, N-(4-((2-(1,1-difluoroethyl)-6-methylpyrimidin-4-yl)amino)-5-(5-methoxypyrimidin-2-yl)pyridin-2-yl)acetamide] |  |  | ≤ 10 nM |  | ≤ 10 nM
CC(=O)Nc1cc(Nc2cc(C)nc(C(C)(F)F)n2)c(OC[C@@H]2CCC(=O)N2)cn1 [Example 500, (S)-N-(4-((2-(1,1-difluoroethyl)-6-methylpyrimidin-4-yl)amino)-5-((5-oxopyrrolidin-2-yl)methoxy)pyridin-2-yl)acetamide] |  |  | 100 to 1000 nM |  | ≤ 10 nM
COc1cc(Nc2ccnc(NC(C)=O)c2)nc(C(C)(F)F)n1 [Example 808, N-(4-((2-(1,1-difluoroethyl)-6-methoxypyrimidin-4-yl)amino)pyridin-2-yl)acetamide] | ≥ 1000 nM | 10 to 100 nM |  |  | 
CCc1cc(Nc2cc(NC(C)=O)ncc2-c2ccc3c(n2)OCC(C)(C)O3)nc(C(C)(F)F)n1 [Example 821, N-(4-((2-(1,1-difluoroethyl)-6-ethylpyrimidin-4-yl)amino)-5-(2,2-dimethyl-2,3-dihydro-[1,4]dioxino[2,3-b]pyridin-6-yl)pyridin-2-yl)acetamide] | ≤ 10 nM | ≤ 10 nM |  |  | 
CCc1cc(Nc2cc(NC(C)=O)ncc2O[C@H]2C[C@@H](F)C2)nc(C(C)(F)F)n1 [Example 413, N-(4-((2-(1,1-difluoroethyl)-6-ethylpyrimidin-4-yl)amino)-5-((1s,3s)-3-fluorocyclobutoxy)pyridin-2-yl)acetamide] |  |  | ≤ 10 nM |  | ≤ 10 nM
CC(=O)Nc1cc(Nc2cc(C)nc(C(C)(F)F)n2)c(-n2cc3c(n2)CCN(C)C3)cn1 [Example 277, N-(4-((2-(1,1-difluoroethyl)-6-methylpyrimidin-4-yl)amino)-5-(5-methyl-4,5,6,7-tetrahydro-2H-pyrazolo[4,3-c]pyridin-2-yl)pyridin-2-yl)acetamide] |  |  | ≤ 10 nM | ≤ 10 nM | 
CC(=O)Nc1cc(Nc2cc(C)nc(C(C)(C)F)n2)c(-c2cc3n(n2)CCOC3)cn1 [Example 530, N-(5-(6,7-dihydrO4H-pyrazolo[5,1-c][1,4]oxazin-2-yl)-4-((2-(2-fluoropropan-2-yl)-6-methylpyrimidin-4-yl)amino)pyridin-2-yl)acetamide] |  |  | ≤ 10 nM |  | ≤ 10 nM
CC(=O)Nc1cc(Nc2ccnc(C(C)(F)F)n2)c(-c2cc(C)ccn2)cn1 [Example 700, N-(4′-((2-(1,1-difluoroethyl)pyrimidin-4-yl)amino)-4-methyl-[2,3′-bipyridin]-6′-yl)acetamide] |  |  | 10 to 100 nM |  | ≤ 10 nM
CC(=O)Nc1cc(Nc2cc(C)nc(C(C)(C)F)n2)c(-c2ccnc(C)n2)cn1 [Example 176, N-(4-((2-(2-fluoropropan-2-yl)-6-methylpyrimidin-4-yl)amino)-5-(2-methylpyrimidin-4-yl)pyridin-2-yl)acetamide] |  |  | ≤ 10 nM | ≤ 10 nM | 
CC(=O)Nc1cc(Nc2cc(C)nc(C(C)(F)F)n2)c(-c2cc3n(n2)CCN(C)C3=O)cn1 [Example 541, N-(4-((2-(1,1-difluoroethyl)-6-methylpyrimidin-4-yl)amino)-5-(5-methyl-4-oxO4,5,6,7-tetrahydropyrazolo[1,5-a]pyrazin-2-yl)pyridin-2-yl)acetamide] |  |  | 10 to 100 nM |  | ≤ 10 nM
CC(=O)Nc1cc(Nc2cc(C)nc(C(C)(F)F)n2)c(OCC(F)C2CCC2)cn1 (centres unmarked) [Example 420, N-(5-(2-cyclobutyl-2-fluoroethoxy)-4-((2-(1,1-difluoroethyl)-6-methylpyrimidin-4-yl)amino)pyridin-2-yl)acetamide] |  |  | 10 to 100 nM |  | ≤ 10 nM
